# Source: US20240246964A1 (Arbutus Biopharma Corporation, priority 2021, published 2024)
# Target: human PD-L1 (Homo sapiens (Human), UniProt Q9NZQ7)
# Experiment: T cell activation luciferase reporter cell culture system (T Cell Activation Assay)
# Type: cell-based
# Conditions: luciferase reporter assay; PD-L1 aAPC/CHO-K1 cells with PD-1 effector Jurkat T cells
# Chain of human PD-L1 (Q9NZQ7 19-290): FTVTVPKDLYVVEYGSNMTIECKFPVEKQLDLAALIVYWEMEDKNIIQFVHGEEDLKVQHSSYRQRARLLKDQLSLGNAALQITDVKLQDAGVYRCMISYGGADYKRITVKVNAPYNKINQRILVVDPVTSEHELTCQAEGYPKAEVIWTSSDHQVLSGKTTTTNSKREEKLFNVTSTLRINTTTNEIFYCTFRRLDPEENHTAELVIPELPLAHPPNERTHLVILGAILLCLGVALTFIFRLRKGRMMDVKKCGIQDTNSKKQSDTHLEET
row,EC50 [µM],SMILES
1,0.226,"COc1cc(-c2nccc(-c3cccc(-c4ccc(CN5CC6(COC6)C5)c(OC)n4)c3Cl)c2C)ccc1CN1CC2(COC2)C1 [Example 464, 6-(4-(4-(3-(5-((2-Oxa-6-azaspiro[3.3]heptan-6-yl)methyl)-6-methoxypyridin-2-yl)-2-chlorophenyl)-3-methylpyridin-2-yl)-2-methoxybenzyl)-2-oxa-6-azaspiro[3.3]heptane]"
2,0.0483,"COC(=O)N1CCC(NCc2ccc(-c3nccc(-c4cccc(-c5ccc(CNC6CCN(C(=O)OC)CC6)c(OC)n5)c4Cl)c3Cl)cc2OC)CC1 [Example 465, Methyl 4-(((6-(2-chloro-3-(3-chloro-2-(3-methoxy-4-(((1-(methoxycarbonyl)piperidin-4-yl)amino)methyl)phenyl)pyridin-4-yl)phenyl)-2-methoxypyridin-3-yl)methyl)amino)piperidine-1-carboxylate]"
3,≥ 10,"COc1cc(-c2nccc(-c3cccc(-c4ccc(CN5CCC(NC(C)=O)CC5)c(OC)n4)c3Cl)c2C)ccc1CN1CCC(NC(C)=O)CC1 [Example 466, N-(1-((6-(3-(2-(4-((4-Acetamidopiperidin-1-yl)methyl)-3-methoxyphenyl)-3-methylpyridin-4-yl)-2-chlorophenyl)-2-methoxypyridin-3-yl)methyl)piperidin-4-yl)acetamide]"
4,≥ 10,"COc1cc(-c2nccc(-c3cccc(-c4ccc(CN5CCC(NC(C)=O)CC5)c(OC)n4)c3C)c2Cl)ccc1CN1CCC(NC(C)=O)CC1 [Example 467, N-(1-((6-(3-(2-(4-((4-acetamidopiperidin-1-yl)methyl)-3-methoxyphenyl)-3-chloropyridin-4-yl)-2-methylphenyl)-2-methoxypyridin-3-yl)methyl)piperidin-4-yl)acetamide]"
5,0.0971,"COc1cc(-c2nccc(-c3cccc(-c4ccc(CN(C)C5CCOCC5)c(OC)n4)c3Cl)c2Cl)ccc1CNC1CCOCC1 [Example 468, N-((6-(2-chloro-3-(3-chloro-2-(3-methoxy-4-(((tetrahydro-2H-pyran-4-yl)amino)methyl)phenyl)pyridin-4-yl)phenyl)-2-methoxypyridin-3-yl)methyl)-N-methyltetrahydro-2H-pyran-4-amine]"
6,0.0793,"COc1cc(-c2nccc(-c3cccc(-c4ccc(CN(C)C5CCN(C(C)=O)CC5)c(OC)n4)c3Cl)c2Cl)ccc1CNC1CCOCC1 [Example 469, 1-(4-(((6-(2-chloro-3-(3-chloro-2-(3-methoxy-4-(((tetrahydro-2H-pyran-4-yl)amino)methyl)phenyl)pyridin-4-yl)phenyl)-2-methoxypyridin-3-yl)methyl)(methyl)amino)piperidin-1-yl)ethan-1-one]"
7,0.0317,"COc1cc(-c2nccc(-c3cccc(-c4ccc(CN(C)C[C@@H]5CCC(=O)N5)c(OC)n4)c3Cl)c2Cl)ccc1CN(C)C[C@@H]1CCC(=O)N1 [Example 472, (S)-5-((((6-(2-Chloro-3-(3-chloro-2-(3-methoxy-4-((methyl(((S)-5-oxopyrrolidin-2-yl)methyl)amino)methyl)phenyl)pyridin-4-yl)phenyl)-2-methoxypyridin-3-yl)methyl)(methyl)amino)methyl)pyrrolidin-2-one]"
8,3.77,"COc1nc(-c2cccc(-c3ccnc(-c4cc(OC)c5nc(CN6CCOCC6)cn5c4)c3Cl)c2Cl)ccc1CNC1CCN(C(C)=O)CC1 [Example 475, 1-(4-(((6-(2-Chloro-3-(3-chloro-2-(8-methoxy-2-(morpholinomethyl)imidazo[1,2-a]pyridin-6-yl)pyridin-4-yl)phenyl)-2-methoxypyridin-3-yl)methyl)amino)piperidin-1-yl)ethan-1-one]"
9,≥ 10,"COc1nc(-c2cccc(-c3ccnc(-c4cc(OC)c5nc(CN6CCC(F)(F)C6)cn5c4)c3Cl)c2Cl)ccc1CNC1CCN(C(C)=O)CC1 [Example 476, 1-(4-(((6-(2-Chloro-3-(3-chloro-2-(2-((3,3-difluoropyrrolidin-1-yl)methyl)-8-methoxyimidazo[1,2-a]pyridin-6-yl)pyridin-4-yl)phenyl)-2-methoxypyridin-3-yl)methyl)amino)piperidin-1-yl)ethan-1-one]"
10,0.0593,"COc1cc(-c2nccc(-c3cccc(-c4ccc(CNC5CCN(C(C)=O)CC5)c(OC)n4)c3Cl)c2Cl)ccc1CNCCN1CCNC(=O)C1 [Example 479, 4-(2-((4-(4-(3-(5-(((1-Acetylpiperidin-4-yl)amino)methyl)-6-methoxypyridin-2-yl)-2-chlorophenyl)-3-chloropyridin-2-yl)-2-methoxybenzyl)amino)ethyl)piperazin-2-one]"
11,0.0159,"COCC(=O)N1CCC(NCc2ccc(-c3cccc(-c4ccnc(-c5ccc(CNC6CCN(C(C)=O)CC6)c(OC)c5)c4Cl)c3Cl)nc2OC)CC1 [Example 481, 1-(4-(((6-(3-(2-(4-(((1-Acetylpiperidin-4-yl)amino)methyl)-3-methoxyphenyl)-3-chloropyridin-4-yl)-2-chlorophenyl)-2-methoxypyridin-3-yl)methyl)amino)piperidin-1-yl)-2-methoxyethan-1-one]"
12,0.0203,"COc1cc(-c2nccc(-c3cccc(-c4ccc(CNC5CCN(C(C)=O)CC5)c(OC)n4)c3Cl)c2Cl)ccc1CN1CC2(C1)CN(C(C)=O)C2 [Example 482, 1-(4-(((6-(3-(2-(4-((6-acetyl-2,6-diazaspiro[3.3]heptan-2-yl)methyl)-3-methoxyphenyl)-3-chloropyridin-4-yl)-2-chlorophenyl)-2-methoxypyridin-3-yl)methyl)amino)piperidin-1-yl)ethan-1-one]"
13,0.195,"COc1cc(-c2nccc(-c3cccc(-c4ccc(CNC5CCSCC5)c(OC)n4)c3Cl)c2Cl)ccc1CNC1CCSCC1 [Example 484, N-((6-(2-Chloro-3-(3-chloro-2-(3-methoxy-4-(((tetrahydro-2H-thiopyran-4-yl)amino)methyl)phenyl)pyridin-4-yl)phenyl)-2-methoxypyridin-3-yl)methyl)tetrahydro-2H-thiopyran-4-amine]"
14,0.212,"COc1cc(-c2nccc(-c3cccc(-c4ccc(CN5CC6(CCN(C(C)=O)CC6)C5)c(OC)n4)c3Cl)c2Cl)ccc1CN1CC2(CCN(C(C)=O)CC2)C1 [Example 485, 1-(2-((6-(3-(2-(4-((7-Acetyl-2,7-diazaspiro[3.5]nonan-2-yl)methyl)-3-methoxyphenyl)-3-chloropyridin-4-yl)-2-chlorophenyl)-2-methoxypyridin-3-yl)methyl)-2,7-diazaspiro[3.5]nonan-7-yl)ethan-1-one]"
15,0.114,"COc1nc(-c2ccnc(-c3cccc4c3CC[C@@H]4Nc3nc(OC)c(CNC[C@@H]4CCC(=O)N4)cc3C(F)(F)F)c2Cl)ccc1CNC1CCN(C(C)=O)CC1 [Example 486, (S)-5-((((6-(((S)-4-(5-(((1-Acetylpiperidin-4-yl)amino)methyl)-3′-chloro-6-methoxy-[2,4′-bipyridin]-2′-yl)-2,3-dihydro-1H-inden-1-yl)amino)-2-methoxy-5-(trifluoromethyl)pyridin-3-yl)methyl)amino)methyl)pyrrolidin-2-one]"
16,0.0399,"COc1cc(-c2nccc(-c3cccc(-c4ccc(CN5CCC(O)CC5)c(OC)n4)c3Cl)c2Cl)ccc1CNC1CCN(C(C)=O)CC1 [Example 487, 1-(4-((4-(3-Chloro-4-(2-chloro-3-(5-((4-hydroxypiperidin-1-yl)methyl)-6-methoxypyridin-2-yl)phenyl)pyridin-2-yl)-2-methoxybenzyl)amino)piperidin-1-yl)ethan-1-one]"
17,0.034,"COc1cc(-c2nccc(-c3cccc(-c4ccc(CN[C@H]5CC[C@H](OC)CC5)c(OC)n4)c3Cl)c2Cl)ccc1CNC1CCN(C(C)=O)CC1 [Example 488, 1-(4-((4-(3-Chloro-4-(2-chloro-3-(6-methoxy-5-((((1r,4r)-4-methoxycyclohexyl)amino)methyl)pyridin-2-yl)phenyl)pyridin-2-yl)-2-methoxybenzyl)amino)piperidin-1-yl)ethan-1-one]"
18,0.0285,"COc1cc(-c2nccc(-c3cccc(-c4ccc(CNC5CCN(C(C)=O)CC5)c(OC)n4)c3Cl)c2Cl)ccc1CN1CCC[C@@H](O)C1 [Example 489, (R)-1-(4-(((6-(2-Chloro-3-(3-chloro-2-(4-((3-hydroxypiperidin-1-yl)methyl)-3-methoxyphenyl)pyridin-4-yl)phenyl)-2-methoxypyridin-3-yl)methyl)amino)piperidin-1-yl)ethan-1-one]"
19,0.0179,"COCC(=O)N1CCC(NCc2ccc(-c3cccc(-c4ccnc(-c5ccc(CN6CC7(CNC(=O)C7)C6)c(OC)c5)c4Cl)c3Cl)nc2OC)CC1 [Example 490, 2-(4-(3-Chloro-4-(2-chloro-3-(6-methoxy-5-(((1-(2-methoxyacetyl)piperidin-4-yl)amino)methyl)pyridin-2-yl)phenyl)pyridin-2-yl)-2-methoxybenzyl)-2,6-diazaspiro[3.4]octan-7-one]"
20,0.0318,"COCC(=O)N1CCC(NCc2ccc(-c3cccc(-c4ccnc(-c5ccc(CN6CC7(C6)CN(C(C)=O)C7)c(OC)c5)c4Cl)c3Cl)nc2OC)CC1 [Example 491, 1-(4-(((6-(3-(2-(4-((6-Acetyl-2,6-diazaspiro[3.3]heptan-2-yl)methyl)-3-methoxyphenyl)-3-chloropyridin-4-yl)-2-chlorophenyl)-2-methoxypyridin-3-yl)methyl)amino)piperidin-1-yl)-2-methoxyethan-1-one]"
21,0.0185,"COc1cc(-c2nccc(-c3cccc(-c4ccc(CNC5CCOCC5)c(OC)n4)c3Cl)c2Cl)ccc1CN1CC2(C1)CN(C(C)=O)C2 [Example 492, 1-(6-(4-(3-chloro-4-(2-chloro-3-(6-methoxy-5-(((tetrahydro-2H-pyran-4-yl)amino)methyl)pyridin-2-yl)phenyl)pyridin-2-yl)-2-methoxybenzyl)-2,6-diazaspiro[3.3]heptan-2-yl)ethan-1-one]"
22,0.0228,"COc1cc(-c2nccc(-c3cccc(-c4ccc(CN5CC6(CNC(=O)C6)C5)c(OC)n4)c3Cl)c2Cl)ccc1CNC1CCOCC1 [Example 495, 2-((6-(2-Chloro-3-(3-chloro-2-(3-methoxy-4-(((tetrahydro-2H-pyran-4-yl)amino)methyl)phenyl)pyridin-4-yl)phenyl)-2-methoxypyridin-3-yl)methyl)-2,6-diazaspiro[3.4]octan-7-one]"
